Test results as given in BindingDB's records for doi:10.1016/j.bmcl.2011.11.065 (Nerviano Medical Sciences, 2011).

Biological target: 3-phosphoinositide-dependent protein kinase 1 (PDPK1) (Homo sapiens) (UniProt O15530)
Assay: Inhibition of PDK1

| SMILES | IC50 |
| --- | --- |
| CN1CCN(c2ccc(OC(F)(F)F)c(Nc3nccc(-c4cc5c(n4C)CCNC5=O)n3)c2)CC1 | > 10 µM |
| CN1CCN(c2ccc(OC(F)(F)F)c(Nc3nccc(-c4cc(C(N)=O)cn4C)n3)c2)CC1 | > 10 µM |
